The target of assay [1] is FGF-1 (Homo sapiens, UniProt P05230). As to the kind of experiment: Growth factor binding assay (SPR solution affinity), FGF-1. Conditions: SPR, HBS-EP buffer, 25° C.; read-out: Kd FGF-1. The method, then: (§1) Binding affinities of compounds for the growth factors FGF-1, FGF-2 and VEGF were measured using a surface plasmon resonance (SPR) based solution affinity assay.^9 Heparin-coated sensorchips used for this assay were prepared via immobilisation of biotinylated BSA-heparin on a streptavidin-coated sensorchip, or via aldehyde coupling using either adipic acid dihydrazide or 1,4-diaminobutane.^9 For each Kd measurement, solutions were prepared containing a fixed concentration of protein and varying concentrations of the ligand in buffer. Ligands binding to FGF-1 and VEGF were measured in HBS-EP buffer (10 mM HEPES, pH 7.4, 150 mM NaCl, 3.0 mM EDTA and 0.005% (v/v) polysorbate 20), while binding to FGF-2 was measured in HBS-EP buffer containing 0.3 M NaCl. Prior to injection, samples were maintained at 4° C. to maximise protein stability. For each assay mixture, 50-200 μL of solution was injected at 5-40 μL/min and the relative binding response measured. All surface binding experiments were performed at 25° C. The surface was regenerated by injection of 40 μL of 4M NaCl at 40 μL/min, followed by injection of 40 μL of buffer at 40 μL/min.
Sequence of FGF-1 (P05230 whole entry, species assumed): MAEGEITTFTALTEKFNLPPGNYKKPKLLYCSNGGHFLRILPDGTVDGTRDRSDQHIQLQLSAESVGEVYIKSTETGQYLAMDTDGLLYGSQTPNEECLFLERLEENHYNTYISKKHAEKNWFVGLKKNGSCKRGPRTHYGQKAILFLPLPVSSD
(§2) Sensorgram data were analysed using the BIAevaluation software (BIAcore) and Kd values determined as previously described.^9 Where Kd values were measured in duplicate, the values represent the average of the duplicate measurements.

Assay [2] has as its target T1, VEGF (Homo sapiens, UniProt P15692).
T1 sequence (P15692 207-395): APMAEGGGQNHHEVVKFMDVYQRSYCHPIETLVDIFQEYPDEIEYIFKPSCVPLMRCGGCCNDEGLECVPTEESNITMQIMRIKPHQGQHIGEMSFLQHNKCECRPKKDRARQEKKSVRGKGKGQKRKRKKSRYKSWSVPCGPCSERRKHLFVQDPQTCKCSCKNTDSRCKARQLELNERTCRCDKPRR
The assay can be described thus: Growth factor binding assay (SPR solution affinity), VEGF. The following applies: HBS-EP buffer, 25° C. On the procedure:
as §1, §2

Assay [3] addresses T2, recombinant human heparanase (Homo sapiens, UniProt Q9Y251).
T2 sequence (Q9Y251 158-543 limits assumed): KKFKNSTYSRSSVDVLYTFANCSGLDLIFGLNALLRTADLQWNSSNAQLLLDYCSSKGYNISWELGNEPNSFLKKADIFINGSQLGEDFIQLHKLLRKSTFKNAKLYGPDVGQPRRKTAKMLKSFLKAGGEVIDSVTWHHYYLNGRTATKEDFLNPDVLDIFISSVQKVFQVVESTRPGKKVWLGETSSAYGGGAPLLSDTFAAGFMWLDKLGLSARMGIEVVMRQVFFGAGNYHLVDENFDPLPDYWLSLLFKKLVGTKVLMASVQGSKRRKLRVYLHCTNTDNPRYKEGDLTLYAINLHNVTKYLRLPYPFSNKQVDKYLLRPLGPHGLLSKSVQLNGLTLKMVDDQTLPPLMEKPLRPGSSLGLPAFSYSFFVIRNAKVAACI
T2 sequence (Q9Y251 36-109 limits assumed): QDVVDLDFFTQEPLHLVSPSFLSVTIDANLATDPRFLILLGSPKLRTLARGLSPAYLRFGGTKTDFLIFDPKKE
As to the kind of experiment: Heparanase inhibition assay (fondaparinux cleavage, WST-1). Conditions: read-out: Ki Heparanase; IC50 converted into Ki; fondaparinux 100 μM, pH 5.0. For orientation: Formazan colour is commonly taken as a measure of viable cells.
Description: In the presence of an inhibitor the catalytic activity of heparanase is reduced, and the amount of disaccharide produced and the optical density of the solution are both decreased. The percent inhibition and IC50 of the inhibitor are determined from measurement of the optical density (OD) over a range of inhibitor concentrations.
Assays were carried out in 40 mM sodium acetate buffer, pH 5.0, as follows. […] A blue colour was developed by incubation of the plates at 60° C. for 60 min. […] The IC50 value for each compound was evaluated and converted into a Ki (inhibition constant) using the expression

Assay [4] has as its system normal pooled human plasma. The assay can be described thus: Anticoagulant activity, Heptest. The following applies: 0.1 mg/mL in normal pooled human plasma.
In assay [5] the target is FGF-2 (Homo sapiens, UniProt P09038). As to the kind of experiment: Growth factor binding assay (SPR solution affinity), FGF-2. The following applies: SPR, HBS-EP buffer containing 0.3 M NaCl, 25° C.; read-out: Kd FGF-2. The method, then: as §1, §2
Sequence of FGF-2 (P09038 143-288, species assumed): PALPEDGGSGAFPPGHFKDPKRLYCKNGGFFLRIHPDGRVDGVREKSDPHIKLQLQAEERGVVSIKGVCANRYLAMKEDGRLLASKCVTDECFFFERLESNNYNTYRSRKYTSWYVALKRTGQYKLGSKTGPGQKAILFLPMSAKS
Assay [6] concerns pooled normal human plasma. As to the kind of experiment: Anticoagulant activity, APTT. Conditions: 0.1 mg/mL in normal pooled human plasma. The method, then: APTT measurements were performed on a STAGO STA-Compact Coagulation Analyser using standard protocols according to the manufacturer's instructions. Unfractionated heparin (UFH) was used as a control.

SMILES strings stand for the structures. Where a name gives a salt, the structure may show the parent alone.

The term Kd denotes a measure of binding affinity in units of concentration. For `CC(C)CCCC(C)C1CCC2C3CC=C4CC(OC5OC(COS(=O)(=O)O)C(OS(=O)(=O)O)C(OS(=O)(=O)O)C5OC5OC(COS(=O)(=O)O)C(OS(=O)(=O)O)C(OC6OC(COS(=O)(=O)O)C(OS(=O)(=O)O)C(OC7OC(COS(=O)(=O)O)C(OS(=O)(=O)O)C(OS(=O)(=O)O)C7OS(=O)(=O)O)C6OS(=O)(=O)O)C5OS(=O)(=O)O)CCC4(C)C3CCC12C` [Compound 17, 3β-Cholesteryl 2,3,4,6-tetra-O-sodium sulfonato-α-D-mannopyranosyl-(1→3)-2,4,6-tri-O-sodium sulfonato-α-D-mannopyranosyl-(1→3)-2,4,6-tri-O-sodium sulfonato-α-D-mannopyranosyl-(1→2)-3,4,6-tri-O-sodium sulfonato-α-D-mannopyranoside], the figures for the Kd in assay [1] and in assay [2] were 3.2 ± 0.5 nM and 24 ± 6 nM, respectively.

In general, Ki refers to a dissociation constant, usually derived from enzyme kinetics or from competition with a known ligand. As for `CCCCCCCCCCCCCCCCCC(=O)NCCCOC1OC(COS(=O)(=O)O)C(OS(=O)(=O)O)C(OS(=O)(=O)O)C1OC1OC(COS(=O)(=O)O)C(OS(=O)(=O)O)C(OC2OC(COS(=O)(=O)O)C(OS(=O)(=O)O)C(OC3OC(COS(=O)(=O)O)C(OS(=O)(=O)O)C(OS(=O)(=O)O)C3OS(=O)(=O)O)C2OS(=O)(=O)O)C1OS(=O)(=O)O` [Compound 24, 3-Stearamidopropyl 2,3,4,6-tetra-O-sodium sulfonato-α-D-mannopyranosyl-(1→3)-2,4,6-tri-O-sodium sulfonato-α-D-mannopyranosyl-(1→3)-2,4,6-tri-O-sodium sulfonato-α-D-mannopyranosyl-(1→2)-3,4,6-tri-O-sodium sulfonato-α-D-mannopyranoside], the values for the equilibrium dissociation constant (Kd) in assay [1], in assay [2] and in assay [5] were 0.44 ± 0.04 nM, 40 ± 17 nM and 108 ± 11 nM, respectively. In assay [3], the Ki is 6 ± 2.1 nM. The compound further showed a Heptest in assay [4] of 24.5 s. The compound further gave an APTT in assay [6] of 68.1 s.

For the compound `CC(C)CCCC(C)C1CCC2C3CCC4CC(OC5OC(COS(=O)(=O)O)C(OS(=O)(=O)O)C(OS(=O)(=O)O)C5OC5OC(COS(=O)(=O)O)C(OS(=O)(=O)O)C(OC6OC(COS(=O)(=O)O)C(OS(=O)(=O)O)C(OC7OC(COS(=O)(=O)O)C(OS(=O)(=O)O)C(OC8OC(COS(=O)(=O)O)C(OS(=O)(=O)O)C(OS(=O)(=O)O)C8OS(=O)(=O)O)C7OS(=O)(=O)O)C6OS(=O)(=O)O)C5OS(=O)(=O)O)CCC4(C)C3CCC12C` [Compound 27, 3β-Cholestanyl 2,3,4,6-tetra-O-sodium sulfonato-α-D-mannopyranosyl-(1→3)-2,4,6-tri-O-sodium sulfonato-α-D-mannopyranosyl-(1→3)-2,4,6-tri-O-sodium sulfonato-α-D-mannopyranosyl-(1→3)-2,4,6-tri-O-sodium sulfonato-α-D-mannopyranosyl-(1→2)-3,4,6-tri-O-sodium sulfonato-α-D-mannopyranoside], the results for the Kd in assay [1], in assay [2] and in assay [5] were 0.24 ± 0.1 nM, 1.04 ± 0.19 nM and 39 ± 6 nM, respectively. The Ki in assay [3] was 5.5 ± 2.6 nM. This compound had a Heptest in assay [4] of 29.6 s. The compound further gave an APTT in assay [6] of 63.3 s.

On to `CC(C)CCCC(C)C1CCC2C3CCC4CC(OC5OC(COS(=O)(=O)O)C(OS(=O)(=O)O)C(OS(=O)(=O)O)C5OC5OC(COS(=O)(=O)O)C(OS(=O)(=O)O)C(OC6OC(COS(=O)(=O)O)C(OS(=O)(=O)O)C(OS(=O)(=O)O)C6OS(=O)(=O)O)C5OS(=O)(=O)O)CCC4(C)C3CCC12C` [Compound 39, 3β-Cholestanyl 2,3,4,6-tetra-O-sodium sulfonato-α-D-mannopyranosyl-(1→3)-2,4,6-tri-O-sodium sulfonato-α-D-mannopyranosyl-(1→2)-3,4,6-tri-O-sodium sulfonato-α-D-mannopyranoside], for which the Kd was 18.5 ± 1.8 nM in assay [1], 319 ± 19 nM in assay [2] and 631 ± 4 nM in assay [5]. Also, in assay [3], the Ki was found to be 6.4 ± 2.5 nM. Besides, the Heptest in assay [4] is reported as 27.3 s. Further, the APTT in assay [6] amounted to 50.7 s.

Regarding `CCCCCCCCCCCCCCCCCC(=O)NCCCOC1OC(COS(=O)(=O)O)C(OS(=O)(=O)O)C(OS(=O)(=O)O)C1OC1OC(COS(=O)(=O)O)C(OS(=O)(=O)O)C(OC2OC(COS(=O)(=O)O)C(OS(=O)(=O)O)C(OC3OC(COS(=O)(=O)O)C(OS(=O)(=O)O)C(OC4OC(COS(=O)(=O)O)C(OS(=O)(=O)O)C(OS(=O)(=O)O)C4OS(=O)(=O)O)C3OS(=O)(=O)O)C2OS(=O)(=O)O)C1OS(=O)(=O)O` [Compound 44, 3-Stearamidopropyl 2,3,4,6-tetra-O-sodium sulfonato-α-D-mannopyranosyl-(1→3)-2,4,6-tri-O-sodium sulfonato-α-D-mannopyranosyl-(1→3)-2,4,6-tri-O-sodium sulfonato-α-D-mannopyranosyl-(1→3)-2,4,6-tri-O-sodium sulfonato-α-D-mannopyranosyl-(1→2)-3,4,6-tri-O-sodium sulfonato-α-D-mannopyranoside], the Kd worked out at 0.17 ± 0.07 nM in assay [1], 2.7 ± 0.5 nM in assay [2] and 80 ± 40 nM in assay [5]. In addition, in assay [3], the Ki was determined as 4.4 ± 1.4 nM. For the same compound, in assay [4], the Heptest is reported as 58.5 s. For the same compound, the APTT in assay [6] came out at 217.0 s.

Consider `CC(C)CCCC(C)C1CCC2C3CCC4CC(OC5OC(COC6OC(COS(=O)(=O)O)C(OC7OC(COS(=O)(=O)O)C(OC8OC(COS(=O)(=O)O)C(OS(=O)(=O)O)C(OS(=O)(=O)O)C8OS(=O)(=O)O)C(OS(=O)(=O)O)C7OS(=O)(=O)O)C(OS(=O)(=O)O)C6OS(=O)(=O)O)C(OS(=O)(=O)O)C(OS(=O)(=O)O)C5OS(=O)(=O)O)CCC4(C)C3CCC12C` [Compound 119, 3′-Cholestanyl 2,3,4,6-tetra-O-sulfo-α-D-glucopyranosyl-(1→4)-2,3,6-tri-O-sulfo-α-D-glucopyranosyl-(1→4)-2,3,6-tri-O-sulfo-β-D-glucopyranosyl-(1→6)-2,3,4-tri-O-sulfo-α-D-mannopyranoside, tridecasodium salt], for which the figures for the dissociation constant (Kd) in assay [1], in assay [2] and in assay [5] were 5.9 ± 1.6 nM, 7.9 ± 0.7 nM and 286 ± 25 nM, respectively. Moreover, in assay [4], the Heptest was 28.6 s. Further, the APTT in assay [6] was 57.1 s.

As for `CC(C)CCCC(C)C1CCC2C3CCC4CC(OCC(=O)NC5OC(COS(=O)(=O)O)C(OC6OC(COS(=O)(=O)O)C(OC7OC(COS(=O)(=O)O)C(OS(=O)(=O)O)C(OS(=O)(=O)O)C7OS(=O)(=O)O)C(OS(=O)(=O)O)C6OS(=O)(=O)O)C(OS(=O)(=O)O)C5OS(=O)(=O)O)CCC4(C)C3CCC12C` (stereo not shown) [Compound 134], the Kd in assay [1] worked out at 13 ± 3 nM; in assay [2], 1080 ± 200 nM; in assay [5], 630 ± 30 nM.

`CC(C)CCCC(C)C1CCC2C3CCC4CC(OC(C(OS(=O)(=O)[O-])C(OS(=O)(=O)O)C(OC5OC(COS(=O)(=O)O)C(OC6OC(COS(=O)(=O)O)C(OC7OC(COS(=O)(=O)O)C(OS(=O)(=O)O)C(OS(=O)(=O)O)C7OS(=O)(=O)O)C(OS(=O)(=O)O)C6OS(=O)(=O)O)C(OS(=O)(=O)O)C5OS(=O)(=O)O)C(COS(=O)(=O)O)OS(=O)(=O)O)[n+]5ccccc5)CCC4(C)C3CCC12C` [Compound 140, 3′-Cholestanyl 2,3,4,6-tetra-O-sulfo-α-D-glucopyranosyl-(1→4)-2,3,6-tri-O-sulfo-α-D-glucopyranosyl-(1→4)-2,3,6-tri-O-sulfo-α-D-glucopyranosyl-(1→4)-((1-pyridinium-1-yl)-2,3,5,6-tetra-O-sulfo-D-glucoside, tridecasodium salt]: the Kd in assay [1] worked out at 1.3 ± 0.6 nM; in assay [2], 12 ± 2 nM; in assay [5], 380 ± 40 nM.

The record behind these values is US20150065440A1 (Progen Pharmaceuticals Limited, priority 2007, published 2015).
